Measurements as given in publication PMC9654711, “Neuroprotective Action of Coumarin Derivatives through Activation of TRKB-CREB-BDNF Pathway and Reduction of Caspase Activity in Neuronal Cells Expressing Pro-Aggregated Tau Protein” (International Journal of Molecular Sciences, 2022).

Assays:
[1] = biological target: T1, TRKB-ECD-His (extracellular domain of TRKB) (Homo sapiens, UniProt Q16620); test: Tryptophan fluorescence quenching assay; settings: TRKB-ECD-His 50 nM in PBS; excitation 295 nm, emission 330 nm; compounds 0–1000 nM; read-out: TRKB-ECD binding affinity (KD)
T1 construct: extracellular domain of TRKB (TRKB-ECD) (residues 32–429, XP_016870240); Saccharomyces cerevisiae α-factor secretion signal (N, cleaved yes); made in house; host or cells: Pichia pastoris
T1 sequence (Q16620 32-429): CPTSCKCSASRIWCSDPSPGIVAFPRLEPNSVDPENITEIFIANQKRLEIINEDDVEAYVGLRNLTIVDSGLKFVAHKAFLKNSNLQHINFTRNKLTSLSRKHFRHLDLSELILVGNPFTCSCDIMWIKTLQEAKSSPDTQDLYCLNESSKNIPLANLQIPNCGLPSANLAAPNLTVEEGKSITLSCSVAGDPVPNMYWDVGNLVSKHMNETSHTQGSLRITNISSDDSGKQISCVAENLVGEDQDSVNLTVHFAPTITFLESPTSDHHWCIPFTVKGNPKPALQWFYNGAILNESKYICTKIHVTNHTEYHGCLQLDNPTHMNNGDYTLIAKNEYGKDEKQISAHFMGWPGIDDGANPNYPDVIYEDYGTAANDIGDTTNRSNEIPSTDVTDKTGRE
Excerpt: The cDNA fragment containing the full-length extracellular domain of TRKB (TRKB-ECD) (residues 32–429, XP_016870240) was amplified from pDONR223-NTRK2 plasmid (Addgene, Watertown, MA, USA) using forward primer 5′-ctcgagaaaagagaggctgaagctTGTCCCACGTCCTGAAATG (XhoI site and Kex2 cleavage of the signal sequence in lowercase letters) and reverse primer 5′-gtcgac[…] (SalI site in lowercase letters). After cloning and sequencing, the TRKB-ECD fragment was excised with XhoI and SalI and subcloned into Pichia expression vector pGAPZα A (Invitrogen). The AvrII-linearized plasmid was then transformed into Pichia pastoris, and stable transformants selected and cultured at 30 °C for 4 days for constitutive expression of recombinant His-tagged TRKB-ECD. The secreted TRKB-ECD-His in cultured medium was purified using Ni-NTA His•Bind resins (Novagen, Madison, WI 53719, USA) according to the supplier’s instructions. Protein purity was examined by Coomassie blue staining of SDS-polyacrylamide gel as well as immunoblotting using anti-His (1:2000; Acris, Herford, Germany) and anti-TRKB (1:1000; Cell Signaling) antibodies.
The interaction between TRKB-ECD-His and LM-031, LMDS-1 or LMDS-2 was determined by tryptophan fluorescence titration. 7,8-DHF (Sigma-Aldrich) was included as a positive control. Tryptophan fluorescence spectra of TRKB-ECD-His (50 nM in PBS) were obtained before and after titration with different concentrations of test compounds (0–1000 nM). The fluorescent quenching was conducted in a cuvette with a 1 cm path length cell by an F-7000 fluorescence spectrophotometer (Hitachi, Tokyo, Japan) at room temperature. The intrinsic fluorescence spectra of TRKB were recorded with excitation wavelength set at 295 nm and emission wavelength in the range 300–400 nm. The dissociation constant (KD) of 7,8-DHF, LM-031, LMDS-1 and LMDS-2 to TRKB was determined by fitting the normalized fluorescence intensity at 330 nm under different concentrations of test compounds using the equation derived from Liu et al.:KD = [P]T (f − 1) + [D]T (1/f − 1), where f is the fractional change, and [P]Tand [D]Tare the total concentration of TRKB-ECD-His protein and test compound, respectively.

[2] = system: ΔK280 tauRD-DsRed SH-SY5Y cells; test: High-content analysis of neurite outgrowth; format: cell-based, human; settings: 10 µM
Experimental: As described, ∆K280 tauRD-DsRed SH-SY5Y cells were seeded in a 24-well plate (5 × 10^4/well) with retinoic acid addition on day 1, treated with tested compounds (10 µM) and ∆K280 tauRD-DsRed expression was induced with doxycycline (2 μg/mL) on day 2. On day 8, after being fixed in 4% paraformaldehyde for 15 min, permeabilized in 0.1% Triton X-100 for 10 min and blocked in 3% bovine serum albumin (BSA) for 20 min, the cells were stained with TUBB3 (neuronal class III β-tubulin) primary antibody (1:1000; BioLegend, San Diego, CA, USA) at 4 °C overnight, followed by goat anti-rabbit Alexa Fluor® 555 secondary antibody (1:1000; Molecular probes) at room temperature for 2 h, with 4′-6-diamidino-2-phenylindole (DAPI, 0.1 µg/mL; Sigma-Aldrich) included for nuclei staining. Neuronal images were captured using the high-content analysis system as described. Neurite total length (μm), processes (primary neurite extensions projecting directly from the cell body) and branching (points at which primary neurites bifurcated) were analyzed using Neurite Outgrowth Application Module (MetaXpress; Molecular Devices). Around 5000 cells were analyzed in each of three independent experiments for each sample.

[3] = High-content analysis of ΔK280 tauRD-DsRed fluorescence and cell number (folding reporter); format: cell-based, human; settings: human; induced ΔK280 tauRD-DsRed SH-SY5Y; compounds 2.5–10 µM; read-out: IC50 cytotoxicity based on the cell number analyzed
Experimental: (§1) On day 1, ∆K280 tauRD-DsRed SH-SY5Y cells were seeded in a 96-well plate (3 × 10^4/well), with retinoic acid (10 µM; Sigma-Aldrich) added to induce neuronal differentiation. […] […] For ROS measurement, dichloro-dihydro-fluorescein diacetate (DCFH-DA, 10 µM; Invitrogen, Carlsbad, CA, USA) was added to the cells on day 8 and incubated at 37 °C for 30 min.

[4] = DPPH free radical-scavenging assay; settings: compounds tested 10–80 μM; DPPH 100 µM; linear interpolation
Experimental: The potential free radical-scavenging activity of test compounds was assayed using stable free radical 1,1-diphenyl-2-picrylhydrazyl (DPPH) (Sigma-Aldrich). Briefly, kaempferol, LM-031 or LMDS-1 to -4 (10–80 µM) was added to DPPH (100 µM in 99% ethanol). The solution was vortexed for 15 s, left for 30 min at room temperature, the mixture was transferred to a 96-well UV-transparent microplate and the absorbance at 517 nm was measured using a Multiskan^TM GO microplate spectrophotometer (Thermo Fisher Scientific, Waltham, MA, USA). Radical-scavenging activity was calculated using the equation: 1 − (absorbance of sample/absorbance of control) × 100%, and EC50 estimated using the linear interpolation method.

[5] = Oxygen radical antioxidant capacity (ORAC) assay; settings: compound at 100 μM
Experimental: In addition, an oxygen radical antioxidant capacity (ORAC) assay was performed using an OxiSelect™ kit according to the manufacturer’s instruction (Cell Biolabs, San Diego, CA, USA). Briefly, Trolox standards (2.5–50 μM) and samples (4–100 μM) were diluted with 50% acetone. Blank (50% acetone), standards and samples were mixed with fluorescein and incubated at 37 °C for 30 min. Following the free radical initiator 2,2′-azobis(2-methylpropionamidine) dihydrochloride (AAPH), the produced peroxyl radicals (ROO•) quench the fluorescent probe over time. Antioxidants present in the assay block the peroxyl radical oxidation of the fluorescent probe. The course of the reaction was recorded for 60 min, with one measurement every five minutes using a BioTek FLx800 microplate reader. The excitation and emission wavelengths were set at 480 nm and 520 nm, respectively. To quantify the oxygen radical antioxidant activity in a sample, the area under the curve (AUC) for blank, standard and samples was calculated. After subtraction of the blank, the equivalent Trolox concentrations of samples were expressed based on the Trolox standard curve.

[6] = biological target: T2, E. coli-expressed ΔK280 tauRD protein (Homo sapiens, UniProt P10636, DEL597-597); test: Anti-ΔK280 tauRD aggregation assay (thioflavin T); format: biochemical; settings: compounds tested 1–10 μM, 20 μM protein, 48 h, linear interpolation, read-out: EC50 for ΔK280 tauRD aggregation inhibition
T2 construct: assessed by using E. coli-expressed ΔK280 tauRD protein; made in house; host or cells: E. coli
T2 sequence (P10636 with tags, fused parts or gaps DEL597-597): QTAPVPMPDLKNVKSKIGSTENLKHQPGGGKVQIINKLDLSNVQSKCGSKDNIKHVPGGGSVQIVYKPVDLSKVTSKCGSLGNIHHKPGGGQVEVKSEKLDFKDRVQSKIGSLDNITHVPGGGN
Experimental: Thioflavin T is widely used to visualize and quantify the presence of misfolded amyloid protein aggregates in vitro [74]. The tau aggregation inhibiting potential of Congo red, LM-031 and LMDS-1 to -4 was assessed by using E. coli-expressed ΔK280 tauRD protein [28]. Briefly, purified ΔK280 tauRD protein (20 μM) was incubated with Congo red or coumarin compounds (1–10 μM) in 150 mM NaCl and 20 mM Tris-HCl pH8.0, at 37 °C with shaking for 48 h to form aggregates. Then, thioflavin T (final 5 μM; Acros Organics, Geel, Belgium) was added and incubated for 25 min at room temperature. Fluorescence intensity of samples was recorded at excitation/emission wavelengths of 420/485 nm using an FLx800 microplate reader (BioTek, Winooski, VT, USA). The half maximal effective concentration (EC50) values were calculated by using a linear interpolation method.

p-CREB (S133) = test: Immunoblot of p-CREB (S133); format: cell-based, human; settings: BDNF 100 ng/mL, LMDS-1/2 10 μM; induced untreated 72%; Figure 6B
Experimental: (§2) ∆K280 tauRD-DsRed SH-SY5Y cells in 6-well plates (5 × 10^5/well) were treated with retinoic acid (10 µM) on day 1, followed by LMDS-1 or -2 (10 µM) and doxycycline (2 µg/mL) addition on day 2 as described. ERK inhibitor U0126 or PI3K inhibitor wortmannin (10 μM) (LC Laboratories, Woburn, MA, USA) was added on day 6. On day 8, the cells were collected for BDNF, BCL2, BAX and total/phosphorylated TRKB, ERK, AKT, CREB protein analyses as described.
(§3) ∆K280 tauRD-DsRed SH-SY5Y cells were lysed in buffer containing 50 mM Tris-HCl (pH 8.0), 150 mM NaCl, 1 mM EDTA (pH 8.0), 1 mM EGTA (pH 8.0), 0.1% SDS, 0.5% sodium deoxycholate, 1% Triton X-100 and protease (Sigma-Aldrich)/phosphatase (Roche, Basel, Switzerland) inhibitor cocktails. After two sonications with an interval of 30 min on ice, cell lysates were collected by centrifugation at 14,000× g for 30 min at 4 °C. Protein concentrations were determined using a Bradford assay (Bio-Rad, Hercules, CA, USA). Protein samples (25 µg) were separated by 10–12% SDS-PAGE and transferred to polyvinylidene difluoride (PVDF) membranes (Sigma-Aldrich). After blocking for 2 h with 10% skimmed milk or 5% BSA in 0.1% Tween 20 in Tris-buffered saline (TBST), the membrane was incubated with primary antibody against BDNF (1:500; Santa Cruz, Santa Cruz, CA, USA), BCL2 (1:500; BioVision), BAX (1:500; BioVision), TRKB (1:1000; Cell Signaling, Danvers, MA, USA), p-TRKB (Y516) (1:1000; Cell Signaling), p-TRKB (Y817) (1:1000; Millipore, Billerica, MA, USA), ERK (1:1000; Cell Signaling), p-ERK (T202/Y204) (1:500; Cell Signaling), AKT (1:1000; Cell Signaling), p-AKT (S473) (1:1000; Cell Signaling), CREB (1:1000; Santa Cruz), p-CREB (S133) (1:1000; Millipore), JNK (1:1000; Cell Signaling), p-JNK (T183/Y185) (1:1000; Cell Signaling) or loading control glyceraldehyde-3-phosphate dehydrogenase (GAPDH) (1:1000; MDBio, Taipei, Taiwan). After three washes with TBST, the immune complexes were detected using horseradish peroxidase-conjugated goat anti-mouse or goat anti-rabbit secondary IgG antibody (1:5000, GeneTex, Irvine, CA, USA) and enhanced chemiluminescence substrates luminol and peroxide (Millipore). The primary and secondary antibodies used were diluted with TBST. The chemiluminescent detection was performed on ImageQuant™ LAS 4000mini (GE Healthcare).

[7] = system: ΔK280 tauRD-DsRed SH-SY5Y folding reporter cells; test: High-content analysis of ΔK280 tauRD-DsRed fluorescence and cell number (folding reporter); format: cell-based, human; settings: BDNF at 100 ng/mL, LMDS-1/2 at 10 μM; untreated = 100%; Figure 6A
Experimental: as §1

p-TRKB (Y516 and Y817) = test: Immunoblot of p-TRKB (Y516 and Y817); format: cell-based, human; settings: BDNF 100 ng/mL, LMDS-1/2 10 μM; induced untreated 77–83%; Figure 6B
Experimental: as §2, §3

Row | EC50 [4] [µM] | EC50 [6] [µM] | Compound | IC50 at 6 days [3] [µM] | Oxygen radical absorbance capacity, activity equivalent to Trolox [5] [μM Trolox] | further results
1 |  |  | O=c1cc(-c2ccccc2)oc2c(O)c(O)ccc12 [7,8-DHF, 7,8-dihydroxyflavone, reference compound] |  |  | Kd [1]: 0.016 ± 0.0034 µM
2 |  |  | Nc1c(/N=N/c2ccc(-c3ccc(/N=N/c4cc(S(=O)(=O)O)c5ccccc5c4N)cc3)cc2)cc(S(=O)(=O)O)c2ccccc12 [Congo red, reference compound] | 45 |  | Neurite branching ([2]; induced untreated 0.87, uninduced 0.99): 1.00–1.06; Neurite length ([2]; induced untreated 27.2 μm, uninduced 30.9 μm): 30.3–31.5 μm
3 | 28 |  | O=c1c(O)c(-c2ccc(O)cc2)oc2cc(O)cc(O)c12 [Kaempferol, kaempferol, reference compound] |  |  | 
4 | 132 | 21 | COc1ccc2cc(C(=O)c3ccccc3)c(=O)oc2c1 [LMDS-3] | 29 | 12 | 
5 | 126 | 14 | CC(=O)Oc1ccc2cc(C(=O)c3ccccc3)c(=O)oc2c1 [LMDS-4] | 25 | 16 | 
6 |  |  | BDNF: Brain-derived neurotrophic factor |  |  | p-CREB level (p-CREB (S133)): 90–95%; DsRed fluorescence intensity [7]: 111–112%; p-TRKB (Y516/Y817) level (p-TRKB (Y516 and Y817)): 96–104%
